Literature values as cited in US20060165789A1, “Lercanidipine modified release compositions” (Forest Laboratories, Inc., priority 2004, published 2006).

Experiments:
[1] = target: cytochrome P450 3A4 isoenzyme (Homo sapiens, UniProt P08684); conditions: extensive presystemic first pass elimination in patients
[2] = system: dihyropyridine subunit of the L-type calcium channel
[3] = pH 5
Caco2 cell = Caco2 cell apparatus
[4] = for time of maximum concentration (Tmax): form (I) and form (II) compared

cytochrome P450 3A4 isoenzyme, sequence (P08684 whole entry): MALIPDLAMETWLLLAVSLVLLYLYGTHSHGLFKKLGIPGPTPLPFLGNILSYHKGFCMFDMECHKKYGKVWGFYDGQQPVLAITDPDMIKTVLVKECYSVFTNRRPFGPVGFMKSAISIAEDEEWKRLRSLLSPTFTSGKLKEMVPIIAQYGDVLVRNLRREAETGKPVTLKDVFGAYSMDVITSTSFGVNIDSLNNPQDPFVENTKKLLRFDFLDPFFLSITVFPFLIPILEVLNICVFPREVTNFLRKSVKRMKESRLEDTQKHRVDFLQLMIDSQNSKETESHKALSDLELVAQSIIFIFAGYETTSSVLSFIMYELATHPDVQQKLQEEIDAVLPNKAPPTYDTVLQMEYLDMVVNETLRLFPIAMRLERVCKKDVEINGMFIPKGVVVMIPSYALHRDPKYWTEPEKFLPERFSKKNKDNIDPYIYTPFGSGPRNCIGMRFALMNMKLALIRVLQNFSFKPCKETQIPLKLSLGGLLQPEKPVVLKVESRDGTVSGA

increase of amount of lercanidipine absorbed with food (in vivo)	time of peak plasma level following dosage (oral administration) [h]	solubility in acidic medium [3]	Papp (Caco2 cell) [×10⁻⁶ cm/s]	time of maximum concentration (Tmax) [4]	bioavailability ([4]; form (II) compared to Form (I))	systemic exposure (AUCo-t) ([4]; form (II) compared to Form (I))	Structure (SMILES)	cytochrome P450 3A4 substrate [1]	affinity for L-type calcium channel [2]
between three and four times	1 to 3	less than 20 μg/ml	0.05				COC(=O)C1=C(C)NC(C)=C(C(=O)OC(C)(C)CN(C)CCC(c2ccccc2)c2ccccc2)C1c1cccc([N+](=O)[O-])c1.Cl (stereo not shown) [Lercanidipine, methyl 1,1,N-trimethyl-N-(3,3-diphenylpropyl)-2-aminoethyl 1,4-dihydro-2,6-dimethyl-4-(3-nitrophenyl)pyridine-3,5-dicarboxylate]	substrate for cytochrome P450 3A4 isoenzyme	high affinity
				shorter time to maximum concentration			COC(=O)C1=C(C)NC(C)=C(C(=O)OC(C)(C)CN(C)CCC(c2ccccc2)c2ccccc2)C1c1cccc([N+](=O)[O-])c1 (stereo not shown) [form (I)]		
				delayed time of maximum concentration	higher bioavailability	slightly higher systemic exposure	COC(=O)C1=C(C)NC(C)=C(C(=O)OC(C)(C)CN(C)CCC(c2ccccc2)c2ccccc2)C1c1cccc([N+](=O)[O-])c1 (stereo not shown) [form (II)]		
